Reference: patent US10457976B2, “Preparing antibodies from CHO cell cultures for conjugation” (SEATTLE GENETICS, INC., priority 2013, dated 2019)

Test system: QSOX1 sulfhydryl oxidase (oxidizing activity in lot DEVNKB-1)
Assay: Sulfhydryl oxidizing activity of lot DEVNKB-1 with additives (ferrous oxidation xylenol orange, FOX, assay)
Assay type: biochemical, Chinese hamster
Description: Further to characterize the oxidizing activity in lot DEVNKB-1, the lot was tested for sulfhydryl oxidizing activity using the ferrous oxidation xylenol orange (FOX) assay. Sulfhydryl oxidases catalyze the following reaction: 2R—SH+O2→R—S—S—R+H2O2 As the reaction proceeds, oxygen is consumed and hydrogen peroxide is produced. The hydrogen peroxide by-product can be detected readily and reliably, and thus serves as a proxy for sulfhydryl oxidase activity. In the FOX assay, hydrogen peroxide oxidizes ferrous iron (Fe^2+) to produce ferric iron (Fe^3+). The […] complexes with xylenol orange to form a compound that absorbs 560 nm light. Thus, by monitoring absorption of 560 nm light (e.g., using a spectrophotometer), the amount of sulfhydryl oxidizing activity in a sample can be determined. The value of a negative control is compared to the value of the test sample by determining the difference in the 560 nm reading. If the resulting value is greater than 0.1 absorbance units, then the samples is positive for oxidizing impurity. […] Addition of both DEVNKB-1 and 1 mM Zn^2+, however, was only 0.008. […] This is consistent with the oxidizing agent having a flavin-dependent sulfhydryl oxidase domain, such as QSOX1.
Further assays were performed to see whether EDTA could reverse the Zn^2+-dependent elimination of oxidizing activity in lot DEVNKB-1. In these experiments, Zn^2+ was added to the assay buffer, either with or without EDTA. In addition, assay buffer having EDTA was evaluated. […] Addition of both Zn^2+ and additional EDTA, however, reduced the oxidizing activity by only 6%. Thus, the EDTA effectively reversed the Zn^2+-dependent inhibition of oxidizing activity. Again, this is what is expected for an oxidizing agent that has a flavin-dependent sulfhydryl oxidase domain, such as QSOX1.

[1] = Table 2, additive in assay buffer, with or without additional EDTA
[2] = Table 2, relative to assay buffer with additional EDTA (100%)

Structure (SMILES) | Difference (absorption without minus with DEVNKB-1) [1] | % Activity [2] [%] | Difference (absorption without minus with DEVNKB-1) (Table 1, additive 1 mM, 560 nm absorption) | Difference (absorption without minus with DEVNKB-1) (Table 1, additive 1 mM, 560 nm absorption, listed as Zn^2+) | % Activity (Table 1, additive 1 mM, relative to DEVNKB-1 without additive) [%] | reduction of oxidizing activity associated with lot DEVNKB-1 (relative to assay buffer that contained additional EDTA) [%]
O=C(O)CN(CCN(CC(=O)O)CC(=O)O)CC(=O)O [EDTA] | 0.572 | 100 |  |  |  | 
[Zn+2] [Zn2+] | 0.03097 | 5 | 0.0079 | 0.008 | 1 | 95
